In PubChem BioAssay (NCI):
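Compound exposure: 48 hours, 5 concentrations, 96-well plates. TGI: concentration producing complete growth inhibition.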

What was measured:
Test in all cases: NCI anticancer screen, dose series, 48 h
[1] = tested on: K-562 leukemia
[2] = tested on: MCF7 breast
[3] = tested on: SR leukemia
[4] = tested on: OVCAR-4 ovarian
[5] = tested on: NCI-H23 lung
[6] = tested on: MDA-MB-231 breast
[7] = tested on: COLO 205 colon
[8] = tested on: HOP-92 NSCLC
[9] = tested on: SF-268 CNS
[10] = tested on: HL-60(TB) leukemia
[11] = tested on: BT-549 breast
[12] = tested on: HCT-116 colon
[13] = tested on: M14 melanoma
[14] = tested on: NCI-H460 lung
[15] = tested on: SW-620 colon
[16] = tested on: SK-MEL-2 melanoma
[17] = tested on: U251 CNS
[18] = tested on: SK-OV-3 ovarian
[19] = tested on: UACC-62 melanoma
[20] = tested on: RPMI-8226 leukemia
[21] = tested on: RXF 393 renal
[22] = tested on: PC-3 prostate
[23] = tested on: ACHN renal
[24] = tested on: MALME-3M melanoma
[25] = tested on: DU-145 prostate
[26] = tested on: HOP-62 NSCLC
[27] = tested on: SN12C renal
[28] = tested on: KM12 colon
[29] = tested on: MDA-N
[30] = tested on: NCI-H226 lung
[31] = tested on: TK-10 renal
[32] = tested on: HS 578T breast
[33] = tested on: SK-MEL-5 melanoma
[34] = tested on: UACC-257 melanoma
[35] = tested on: 786-0 renal
[36] = tested on: A549 NSCLC
[37] = tested on: SF-539 CNS
[38] = tested on: OVCAR-3 ovarian
[39] = tested on: HCT-15 colon
[40] = tested on: SNB-75 CNS
[41] = tested on: SNB-19 CNS
[42] = tested on: MDA-MB-435
[43] = tested on: UO-31 renal
[44] = tested on: HCC-2998 colon
[45] = tested on: SK-MEL-28 melanoma
[46] = tested on: A498 renal
[47] = tested on: T-47D breast
[48] = tested on: CCRF-CEM leukemia
[49] = tested on: OVCAR-5 ovarian
[50] = tested on: IGROV1 ovarian
[51] = tested on: NCI/ADR-RES ovarian
[52] = tested on: HT29 colon
[53] = tested on: LOX IMVI melanoma
[54] = tested on: NCI-H522 lung
[55] = tested on: SF-295 CNS
[56] = tested on: OVCAR-8 ovarian
[57] = tested on: EKVX NSCLC
[58] = tested on: CAKI-1 renal
[59] = tested on: MOLT-4 leukemia

**Q.** Which results are given for `Cc1ccc(C(=O)Cn2c(C(=O)/C=C/c3cccs3)nc3ccccc32)cc1`?
**A.** TGI [1]: > 100 µM; TGI [2]: > 100 µM; TGI [3]: 50.4 µM; TGI [4]: > 100 µM; TGI [5]: > 100 µM; TGI [6]: > 100 µM; TGI [7]: > 100 µM; TGI [8]: > 100000 nM; TGI [9]: > 100 µM; TGI [10]: > 100 µM; TGI [11]: > 100 µM; TGI [12]: > 100 µM; TGI [13]: > 100 µM; TGI [14]: > 100 µM; TGI [15]: > 100 µM; TGI [16]: 48.3 µM; TGI [17]: > 100 µM; TGI [18]: > 100 µM; TGI [19]: > 100 µM; TGI [20]: > 100 µM; TGI [21]: > 100 µM; TGI [22]: > 100 µM; TGI [23]: > 100000 nM; TGI [24]: > 100 µM; TGI [25]: > 100 µM; TGI [26]: > 100 µM; TGI [27]: > 100 µM; TGI [28]: > 100000 nM; TGI [29]: > 100 µM; TGI [30]: > 100 µM; TGI [31]: > 100 µM; TGI [32]: 72.6 µM; TGI [33]: > 100 µM; TGI [34]: > 100 µM; TGI [35]: > 100000 nM; TGI [36]: > 100 µM; TGI [37]: > 100 µM; TGI [38]: > 100 µM; TGI [39]: > 100 µM; TGI [40]: > 100 µM; TGI [41]: > 100 µM; TGI [42]: > 100 µM; TGI [43]: > 100000 nM; TGI [44]: 43.7 µM; TGI [45]: > 100 µM; TGI [46]: > 100 µM; TGI [47]: > 100 µM; TGI [48]: 38.5 µM; TGI [49]: > 100 µM; TGI [50]: > 100000 nM; TGI [51]: > 100 µM; TGI [52]: > 100 µM; TGI [53]: > 100000 nM

**Q.** `C=C1CCCC(C)(C)C1CCC1(C)CCC(C(C)C(=O)OC)OO1` (configuration not stated) was tested. Which TGI [1] did it give?
**A.** > 25 µM

**Q.** What about the TGI [2] of the same compound?
**A.** > 25 µM

**Q.** What about the TGI [3] of the same compound?
**A.** 9.78 µM

**Q.** What about the TGI [4] of the same compound?
**A.** 17.4 µM

**Q.** What about the TGI [5] of the same compound?
**A.** 8.99 µM

**Q.** And the TGI [54]?
**A.** 12.6 µM

**Q.** What about the TGI [6] of the same compound?
**A.** > 25 µM

**Q.** And the TGI [7]?
**A.** 13.3 µM

**Q.** What about the TGI [8] of the same compound?
**A.** 2440 nM

**Q.** And the TGI [9]?
**A.** 7.77 µM

**Q.** And the TGI [10]?
**A.** 9.16 µM

**Q.** And the TGI [11]?
**A.** 9.97 µM

**Q.** What about the TGI [12] of the same compound?
**A.** > 25 µM

**Q.** And the TGI [13]?
**A.** > 25 µM

**Q.** What about the TGI [14] of the same compound?
**A.** 3.77 µM

**Q.** And the TGI [15]?
**A.** 24.2 µM

**Q.** And the TGI [16]?
**A.** > 25 µM

**Q.** And the TGI [17]?
**A.** 7.21 µM

**Q.** What about the TGI [18] of the same compound?
**A.** 9.43 µM

**Q.** What about the TGI [55] of the same compound?
**A.** 10.2 µM

**Q.** What about the TGI [19] of the same compound?
**A.** > 15.5 µM

**Q.** And the TGI [20]?
**A.** 25 µM

**Q.** And the TGI [21]?
**A.** 11.7 µM

**Q.** And the TGI [22]?
**A.** 7.56 µM

**Q.** And the TGI [23]?
**A.** 2750 nM

**Q.** What about the TGI [24] of the same compound?
**A.** > 25 µM

**Q.** And the TGI [56]?
**A.** > 19.8 µM

**Q.** What about the TGI [25] of the same compound?
**A.** 8.63 µM

**Q.** What about the TGI [57] of the same compound?
**A.** 21.8 µM

**Q.** What about the TGI [26] of the same compound?
**A.** 4.7 µM

**Q.** What about the TGI [27] of the same compound?
**A.** 8.4 µM

**Q.** What about the TGI [58] of the same compound?
**A.** 749 nM

**Q.** What about the TGI [28] of the same compound?
**A.** 2840 nM

**Q.** And the TGI [29]?
**A.** 7.39 µM

**Q.** And the TGI [30]?
**A.** > 25 µM

**Q.** What about the TGI [31] of the same compound?
**A.** 7.72 µM

**Q.** What about the TGI [32] of the same compound?
**A.** 13.8 µM

**Q.** What about the TGI [33] of the same compound?
**A.** > 25 µM

**Q.** What about the TGI [34] of the same compound?
**A.** > 25 µM

**Q.** What about the TGI [35] of the same compound?
**A.** 760 nM

**Q.** What about the TGI [59] of the same compound?
**A.** > 25 µM

**Q.** And the TGI [36]?
**A.** 4.15 µM

**Q.** And the TGI [37]?
**A.** > 22.2 µM

**Q.** And the TGI [38]?
**A.** > 25 µM

**Q.** And the TGI [39]?
**A.** > 25 µM

**Q.** What about the TGI [40] of the same compound?
**A.** 7.56 µM

**Q.** And the TGI [41]?
**A.** > 18.1 µM

**Q.** And the TGI [42]?
**A.** 7.59 µM

**Q.** What about the TGI [43] of the same compound?
**A.** 1910 nM

**Q.** And the TGI [44]?
**A.** 11.5 µM

**Q.** What about the TGI [45] of the same compound?
**A.** > 25 µM

**Q.** And the TGI [46]?
**A.** > 15.3 µM

**Q.** And the TGI [47]?
**A.** 11.7 µM

**Q.** What about the TGI [48] of the same compound?
**A.** > 18 µM

**Q.** And the TGI [49]?
**A.** > 23.1 µM

**Q.** And the TGI [50]?
**A.** 1700 nM

**Q.** What about the TGI [51] of the same compound?
**A.** > 18.4 µM

**Q.** And the TGI [52]?
**A.** > 25 µM

**Q.** And the TGI [53]?
**A.** 902 nM
